Reference: patent publication US11767305B2, “Advantageous benzofuran compositions for mental disorders or enhancement” (Tactogen Inc, priority 2020, dated 2023)

How the values were obtained:
[1] = target: 5-HT2B (Homo sapiens (Human), UniProt P41595); experiment: 5-HT2B agonist and antagonist calcium assay (Calcium NWPLUS, FLIPR); assay type: cell-based
[2] = target: 5-HT2A receptors (Homo sapiens (Human), UniProt P28223); experiment: 5-HT2A agonist and antagonist calcium assay (Calcium NWPLUS, FLIPR); assay type: cell-based
Protocol: The DiscoveRx Calcium NWPLUS Assay was used for detection of changes in intracellular calcium as signalled by an increase of dye fluorescence in cells expressing 5-HT2A receptors. Signal was measured on a fluorescent plate reader equipped with fluidic handling capable of detecting rapid changes in fluorescence upon compound stimulation.
To conduct the assay, cell lines were expanded from freezer stocks according to standard procedures. Cells (10,000 cells/well) were seeded in a total volume of 50 μL (200 cells/μL) into black-walled, clear-bottom, Poly-D-lysine coated 384-well microplates and incubated at 37-C for the appropriate time prior to testing. DMSO concentration for all readouts was ≤0.2%.
Assays were performed in 1×DyeLoading Buffer consisting of 1×Dye (DiscoverX, Calcium No WashPLUS kit, Catalog No. 90-0091), 1×Additive A and 2.5 mM Probenecid in HBSS/20 mM Hepes. Probenecid was prepared fresh. Cells were loaded with dye prior to testing. Media was aspirated from cells and replaced with 25 μL Dye Loading Buffer. Test compounds were assayed at 10 concentrations with the highest concentration either 30 or 10 μM and subsequent concentrations using a 0.33 dilution factor. Cells with testing sample were incubated for 45 minutes at 37° C. and then 20 minutes at room temperature. After dye loading, cells were removed from the incubator and 25 μL of 2×compound in HBSS/20 mM Hepes was added using a FLIPR Tetra (MDS). […]
Compound agonist activity was measured on a FLIPR Tetra. Calcium mobilization was monitored for 2 minutes with a 5 second baseline read. FLIPR read-Area under the curve was calculated for the two minute read. Compound activity was analyzed using CBIS data analysis suite (ChemInnovation, CA). Percentage activity was calculated as 100%×(mean RFU of test sample−mean RFU of vehicle control)/(mean MAX RFU control ligand −mean RFU of vehicle control). For antagonist mode assays, percentage inhibition was calculated as 100%×(1−(mean RFU of test sample−mean RFU of vehicle control)/(mean RFU of EC80 control−mean RFU of vehicle control)).

Chain of 5-HT2B (P41595 whole entry, looked up, species assumed): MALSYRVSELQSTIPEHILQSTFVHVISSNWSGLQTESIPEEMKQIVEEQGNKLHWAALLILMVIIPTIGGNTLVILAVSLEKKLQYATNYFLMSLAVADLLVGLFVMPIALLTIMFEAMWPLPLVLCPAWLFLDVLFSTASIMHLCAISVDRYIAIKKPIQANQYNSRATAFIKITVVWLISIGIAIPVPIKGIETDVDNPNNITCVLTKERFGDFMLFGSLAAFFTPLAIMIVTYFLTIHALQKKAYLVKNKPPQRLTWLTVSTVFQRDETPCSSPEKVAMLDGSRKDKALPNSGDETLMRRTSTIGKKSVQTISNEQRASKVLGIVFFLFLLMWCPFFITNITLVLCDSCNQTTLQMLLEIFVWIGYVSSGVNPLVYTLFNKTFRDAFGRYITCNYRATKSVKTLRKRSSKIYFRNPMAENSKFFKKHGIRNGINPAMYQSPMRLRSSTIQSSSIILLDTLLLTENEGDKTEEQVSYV

**Q.** Which results are given for `CN[C@H](C)Cc1ccc2ccoc2c1` [Compound R-6-MAPB, (R)-1-(benzofuran-6-yl)-N-methylpropan-2-amine]?
**A.** IC50 [1]: 400 nM; EC50 [2]: 4620 nM
